Test results published in ChEMBL document CHEMBL1201862, “PubChem BioAssay data set” (2004).
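Values below derive from 48-hour exposures of cells grown in 96-well plates, with endpoints linearly interpolated between the two concentrations bracketing the appropriate inhibition level. GI50 is the concentration that inhibits growth by half.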 Activity calls are given as the source filed them. Rule as the data show it: active = GI50 up to about 1.1 µM and inactive = higher.

Experiments:
Assay in all cases: NCI anticancer screen, dose series, 48 h
[1] = tested on: NCI-H23
[2] = tested on: TK-10
[3] = tested on: RXF 393
[4] = tested on: OVCAR-3
[5] = tested on: SK-MEL-28
[6] = tested on: U-251
[7] = tested on: SNB-78
[8] = tested on: UO-31
[9] = tested on: SK-MEL-5
[10] = tested on: SW-620
[11] = tested on: UACC-257
[12] = tested on: CAKI-1
[13] = tested on: Malme-3M
[14] = tested on: SF-539
[15] = tested on: 786-0
[16] = tested on: A549
[17] = tested on: HCC 2998
[18] = tested on: NCI-H460
[19] = tested on: XF498
[20] = tested on: OVCAR-4
[21] = tested on: HT-29
[22] = tested on: M14
[23] = tested on: DMS-273
[24] = tested on: SNB-75
[25] = tested on: K562
[26] = tested on: DMS-114
[27] = tested on: RPMI-8226
[28] = tested on: HOP-18
[29] = tested on: NCI-H226
[30] = tested on: COLO 205
[31] = tested on: EKVX
[32] = tested on: HCT-15
[33] = tested on: SF-295
[34] = tested on: MOLT-4
[35] = tested on: LXFL 529
[36] = tested on: UACC-62
[37] = tested on: KM12
[38] = tested on: SNB-19
[39] = tested on: KM-20L2
[40] = tested on: ACHN
[41] = tested on: A498
[42] = tested on: SK-MEL-2
[43] = tested on: HCT-116
[44] = tested on: SF-268
[45] = tested on: LOX IMVI
[46] = tested on: NCI-H522
[47] = tested on: HOP-62
[48] = tested on: M19-MEL
[49] = tested on: OVCAR-5
[50] = tested on: SK-OV-3
[51] = tested on: HOP-92
[52] = tested on: OVCAR-8
[53] = tested on: SR
[54] = tested on: SN12C
[55] = tested on: CCRF-CEM
[56] = tested on: IGROV-1
[57] = tested on: DLD-1
[58] = tested on: HL-60
[59] = tested on: MCF7
[60] = tested on: NCI/ADR-RES

Measured: GI50

Cc1c(C(=O)CC(=O)C(=O)Nc2cc(Cl)ccc2Cl)[n+]([O-])c2ccccc2[n+]1[O-]
29 µM: [32]
inactive: [1] 21.5 µM | [2] > 100 µM | [3] 53.8 µM | [4] 19.9 µM | [5] 43.1 µM | [6] 34.8 µM | [7] 50.1 µM | [8] > 100 µM | [9] 32.6 µM | [10] 36 µM | [11] 34.8 µM | [12] > 100 µM | [13] 43.6 µM | [14] 47.8 µM | [15] 61.5 µM | [16] 40.1 µM | [17] 37.7 µM | [18] 37 µM | [19] 51.3 µM | [20] 46.1 µM | [21] 28.5 µM | [22] 25.3 µM | [23] 26.1 µM | [24] 33.6 µM | [25] 72.4 µM | [26] 25.9 µM | [27] 21.7 µM | [28] 34.1 µM | [29] > 100 µM | [30] 31.4 µM | [31] 37.8 µM | [33] > 100 µM | [34] 26.6 µM | [35] 45.6 µM | [36] 19.5 µM | [37] 37.3 µM | [38] 45.5 µM | [39] 36.1 µM | [40] > 100 µM | [41] > 100 µM | [42] 37.9 µM | [43] 35.4 µM | [44] 33.4 µM | [45] 27.4 µM | [46] 23.1 µM | [47] > 100 µM | [48] 25 µM | [49] > 100 µM | [50] > 100 µM | [51] > 100 µM | [52] 30.7 µM | [53] 28.4 µM | [54] 36.8 µM | [55] 73.8 µM | [56] 36.9 µM

COc1ccc(C(=O)C(c2ccc(OC)cc2)C2OC(=O)C(Cl)=C2Cl)cc1 (centres undefined)
> 100 µM: [32]
inactive: [1] > 100 µM | [2] > 100 µM | [3] > 100 µM | [4] > 100 µM | [5] > 100 µM | [6] > 100 µM | [7] > 100 µM | [8] > 100 µM | [9] > 100 µM | [10] > 100 µM | [11] > 100 µM | [12] > 100 µM | [13] > 100 µM | [14] > 100 µM | [15] > 100 µM | [16] > 100 µM | [17] > 100 µM | [18] > 100 µM | [19] > 100 µM | [20] > 100 µM | [21] > 100 µM | [22] > 100 µM | [25] > 100 µM | [26] > 100 µM | [27] > 100 µM | [28] > 100 µM | [29] > 100 µM | [31] > 100 µM | [33] > 100 µM | [34] > 100 µM | [35] > 100 µM | [36] > 100 µM | [37] > 100 µM | [38] > 100 µM | [40] > 100 µM | [42] > 100 µM | [43] > 100 µM | [44] > 100 µM | [45] > 100 µM | [46] > 100 µM | [47] > 100 µM | [48] > 100 µM | [49] > 100 µM | [50] > 100 µM | [57] > 100 µM | [51] > 100 µM | [52] 84.1 µM | [58] > 100 µM | [53] > 100 µM | [54] > 100 µM | [55] > 100 µM | [56] > 100 µM

CC1CC=CC(O)C1 (centres undefined)
inactive: [1] > 100 µM | [3] > 100 µM | [4] > 100 µM | [5] > 100 µM | [6] > 100 µM | [7] > 100 µM | [8] > 100 µM | [9] > 100 µM | [10] > 100 µM | [11] > 100 µM | [13] > 100 µM | [14] > 100 µM | [59] > 100 µM | [16] > 100 µM | [60] > 100 µM | [17] > 100 µM | [18] > 100 µM | [19] > 100 µM | [20] > 100 µM | [21] > 100 µM | [23] > 100 µM | [24] > 93.5 µM | [25] > 100 µM | [26] > 100 µM | [27] > 100 µM | [28] > 100 µM | [29] > 100 µM | [30] > 100 µM | [31] > 100 µM | [33] > 100 µM | [34] > 100 µM | [36] > 100 µM | [37] > 100 µM | [38] > 100 µM | [39] > 100 µM | [41] > 100 µM | [42] > 100 µM | [43] > 100 µM | [44] > 100 µM | [45] > 100 µM | [46] > 100 µM | [47] > 100 µM | [48] > 100 µM | [49] > 100 µM | [50] > 100 µM | [57] > 100 µM | [51] > 100 µM | [52] > 100 µM | [58] > 100 µM | [54] > 100 µM | [55] > 100 µM | [56] > 100 µM
> 100 µM: [32]

COc1cc2cc3c4c(cc(OC)c(OC)c4c2cc1OC)CCN3
32.9 µM: [32]
inactive: [1] 92 µM | [2] 74.5 µM | [3] 25.1 µM | [4] 27.2 µM | [5] 69.8 µM | [6] > 100 µM | [7] > 100 µM | [8] 69.2 µM | [9] 23.8 µM | [10] 21.1 µM | [11] 58.6 µM | [12] 67.1 µM | [13] 44.5 µM | [14] 14.6 µM | [15] 48.4 µM | [16] > 100 µM | [17] 72.8 µM | [18] 21.5 µM | [19] > 100 µM | [20] 33.7 µM | [21] 32.9 µM | [22] 32.9 µM | [23] 33.7 µM | [24] 44 µM | [25] 27.9 µM | [26] 36 µM | [27] 20 µM | [28] > 100 µM | [29] > 100 µM | [30] 22.6 µM | [31] 6.53 µM | [33] 37 µM | [34] 35.3 µM | [35] 58.6 µM | [36] 5.61 µM | [37] 31.6 µM | [38] > 100 µM | [39] 27.5 µM | [40] 32.5 µM | [42] 22.1 µM | [43] 36.6 µM | [44] 34 µM | [45] 28.6 µM | [46] 31.3 µM | [47] > 100 µM | [48] 12.9 µM | [50] > 100 µM | [57] 26.1 µM | [51] 20.8 µM | [52] 76.4 µM | [58] 18.2 µM | [54] 46.7 µM | [55] 26.5 µM | [56] > 100 µM

Oc1cc(-c2ccccn2)nc2ccc(Cl)cc12
inactive: [1] 29.5 µM | [2] 95.7 µM | [5] 34.8 µM | [7] 80.7 µM | [8] 36.1 µM | [10] 19.8 µM | [11] 31.7 µM | [13] 21.7 µM | [14] 31.8 µM | [15] 72.9 µM | [17] 58.9 µM | [18] 38.1 µM | [19] 21.5 µM | [20] 47.1 µM | [21] 33 µM | [22] 36.9 µM | [24] 18.8 µM | [25] 12.8 µM | [27] 18.2 µM | [28] 57.5 µM | [30] 36.6 µM | [31] 44 µM | [34] 53.7 µM | [35] 27.3 µM | [36] 28.7 µM | [37] 24 µM | [38] > 100 µM | [40] 58.6 µM | [45] 30.8 µM | [46] 7.35 µM | [47] 40.3 µM | [48] 24.8 µM | [49] > 100 µM | [50] 36 µM | [57] 41.5 µM | [51] > 100 µM | [52] 44.2 µM | [58] 10.9 µM | [53] > 100 µM | [54] 48 µM | [55] 36.5 µM | [56] 64.1 µM
